Experimental data taken from ChEMBL document CHEMBL1142727 (J Med Chem, 2005).

How the values were obtained:
[1] = Inhibitory ratio for bovine acetylcholinesterase and equine butyrylcholinesterase
[2] = molecular target: Acetylcholinesterase (Homo sapiens, UniProt P22303); test: Inhibitory concentration against human Acetylcholinesterase
[3] = molecular target: Cholinesterase (Homo sapiens, UniProt P06276); test: Inhibitory concentration against human butyrylcholinesterase
[4] = molecular target: T1, Acetylcholinesterase (Bos taurus, UniProt P23795)
T1 sequence (P23795 whole entry): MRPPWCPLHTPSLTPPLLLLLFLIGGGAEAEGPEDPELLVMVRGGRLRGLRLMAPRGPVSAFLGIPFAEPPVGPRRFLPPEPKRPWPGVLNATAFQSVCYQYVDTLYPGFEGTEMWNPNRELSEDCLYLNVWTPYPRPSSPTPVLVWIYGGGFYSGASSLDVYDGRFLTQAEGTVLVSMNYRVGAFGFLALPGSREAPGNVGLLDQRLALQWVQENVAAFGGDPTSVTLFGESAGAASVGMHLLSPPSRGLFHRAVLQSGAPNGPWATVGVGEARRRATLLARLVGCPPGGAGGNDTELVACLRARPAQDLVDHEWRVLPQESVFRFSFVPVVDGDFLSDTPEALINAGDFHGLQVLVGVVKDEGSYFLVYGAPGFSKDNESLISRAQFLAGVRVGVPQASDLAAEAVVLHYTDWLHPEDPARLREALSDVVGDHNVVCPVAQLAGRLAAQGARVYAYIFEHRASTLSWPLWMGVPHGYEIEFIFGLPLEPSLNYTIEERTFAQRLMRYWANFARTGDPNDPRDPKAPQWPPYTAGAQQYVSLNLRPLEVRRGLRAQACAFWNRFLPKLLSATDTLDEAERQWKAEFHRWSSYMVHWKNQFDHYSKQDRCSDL
Description: Dissociation constant for inhibition of fetal bovine serum Acetylcholinesterase

[5] = molecular target: Butyrylcholinesterase (Equus caballus, UniProt Q9N1N9)
Butyrylcholinesterase, sequence (Q9N1N9 whole entry): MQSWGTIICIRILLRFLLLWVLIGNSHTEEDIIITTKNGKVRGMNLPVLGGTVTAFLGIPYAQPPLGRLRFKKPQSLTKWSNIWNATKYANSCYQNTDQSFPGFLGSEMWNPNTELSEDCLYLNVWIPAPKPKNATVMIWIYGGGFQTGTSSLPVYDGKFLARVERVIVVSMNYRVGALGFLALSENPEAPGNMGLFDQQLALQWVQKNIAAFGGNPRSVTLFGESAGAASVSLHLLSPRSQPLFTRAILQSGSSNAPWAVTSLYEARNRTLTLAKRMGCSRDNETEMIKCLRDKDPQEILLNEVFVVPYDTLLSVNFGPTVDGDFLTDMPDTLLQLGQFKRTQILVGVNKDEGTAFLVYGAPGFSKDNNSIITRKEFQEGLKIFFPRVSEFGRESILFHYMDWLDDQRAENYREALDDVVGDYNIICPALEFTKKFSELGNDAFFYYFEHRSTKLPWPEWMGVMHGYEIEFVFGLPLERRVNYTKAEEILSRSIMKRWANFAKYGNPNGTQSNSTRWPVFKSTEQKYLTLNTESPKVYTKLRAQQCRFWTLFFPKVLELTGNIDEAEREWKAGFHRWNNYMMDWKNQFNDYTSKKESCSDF
Description: Dissociation constant for inhibition of equine Butyrylcholinesterase (BuChE)

Cholinesterase, sequence (P06276 whole entry): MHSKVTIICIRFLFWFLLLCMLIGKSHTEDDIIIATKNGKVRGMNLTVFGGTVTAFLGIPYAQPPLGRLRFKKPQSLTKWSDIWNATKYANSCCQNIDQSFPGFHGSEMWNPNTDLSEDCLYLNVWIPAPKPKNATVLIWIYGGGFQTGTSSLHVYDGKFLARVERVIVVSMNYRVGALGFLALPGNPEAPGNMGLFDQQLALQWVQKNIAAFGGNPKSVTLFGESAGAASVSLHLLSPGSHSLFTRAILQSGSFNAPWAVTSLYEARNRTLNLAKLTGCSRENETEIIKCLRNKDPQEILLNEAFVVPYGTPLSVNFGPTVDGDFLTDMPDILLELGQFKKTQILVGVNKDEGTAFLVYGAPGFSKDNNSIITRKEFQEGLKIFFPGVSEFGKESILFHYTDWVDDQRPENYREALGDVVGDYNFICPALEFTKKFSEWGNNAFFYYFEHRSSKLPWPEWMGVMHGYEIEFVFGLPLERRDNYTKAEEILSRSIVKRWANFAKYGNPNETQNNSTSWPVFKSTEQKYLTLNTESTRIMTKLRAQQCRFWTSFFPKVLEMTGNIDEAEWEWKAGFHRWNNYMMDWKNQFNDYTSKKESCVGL
Acetylcholinesterase (Homo sapiens, UniProt P22303), sequence (P22303 whole entry): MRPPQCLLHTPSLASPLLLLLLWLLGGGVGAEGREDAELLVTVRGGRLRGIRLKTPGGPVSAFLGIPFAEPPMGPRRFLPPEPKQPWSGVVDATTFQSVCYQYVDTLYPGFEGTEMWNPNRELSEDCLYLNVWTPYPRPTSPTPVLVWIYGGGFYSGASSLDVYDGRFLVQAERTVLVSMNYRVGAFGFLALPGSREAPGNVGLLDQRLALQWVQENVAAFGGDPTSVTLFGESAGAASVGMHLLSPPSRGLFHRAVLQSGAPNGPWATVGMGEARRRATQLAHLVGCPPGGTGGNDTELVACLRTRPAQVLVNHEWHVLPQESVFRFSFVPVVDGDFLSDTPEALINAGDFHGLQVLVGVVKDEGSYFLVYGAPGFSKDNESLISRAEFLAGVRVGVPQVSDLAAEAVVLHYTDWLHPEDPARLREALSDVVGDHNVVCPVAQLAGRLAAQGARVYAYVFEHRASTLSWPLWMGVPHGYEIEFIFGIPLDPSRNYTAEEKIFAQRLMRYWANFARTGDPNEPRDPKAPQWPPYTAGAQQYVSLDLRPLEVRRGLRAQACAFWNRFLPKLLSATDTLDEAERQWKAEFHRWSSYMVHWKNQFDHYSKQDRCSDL

In the case of `CN(CCCNc1c2c(nc3ccccc13)CCCC2)CCCNc1c2c(nc3ccccc13)CCCC2`, the Ratio [1] is reported as 0.01, the IC50 [2] is reported as 0.3 nM and the IC50 [3] is reported as 10.4 nM.

`OCCN(CCCNc1c2c(nc3ccccc13)CCCC2)CCCNc1c2ccccc2nc2ccccc12` showed a Ratio [1] of 0.2, a Ki [4] of 0.65 nM and a Ki [5] of 3.3 nM.

`c1ccc2c(NCCCCCCCCSc3c4c(nc5ccccc35)CCCC4)c3c(nc2c1)CCCC3` gave a Ratio [1] of 625 and an IC50 [3] of 0.77 nM.

With `CN(CCCNc1c2c(nc3ccccc13)CCCC2)CCCSc1c2c(nc3ccccc13)CCCC2` the Ratio [1] was 2.2, the Ki [4] was 9.1 nM and the Ki [5] was 4.2 nM.

Work on `CCN(CC)C(C)CN1c2ccccc2Sc2ccccc21` (stereo not given) [ETHOPROPAZINE] yielded a Ki [5] of 20 nM.

Molecule `c1ccc2c(NCCCCCCCSc3c4c(nc5ccccc35)CCCC4)c3c(nc2c1)CCCC3` has a Ratio [1] of 9.7.

`CN(CCCCSc1c2c(nc3ccccc13)CCCC2)CCCNc1c2c(nc3ccccc13)CCCC2` gave a Ratio [1] of 191, a Ki [4] of 130 nM and a Ki [5] of 0.68 nM.

For `CC(=O)N(CCCCSc1c2c(nc3ccccc13)CCCC2)CCCNc1c2c(nc3ccccc13)CCCC2`, the Ratio [1] was 427, the Ki [4] was 47 nM and the Ki [5] was 0.11 nM.

With `CC(=O)N(CCCNc1c2c(nc3ccccc13)CCCC2)CCCSc1c2c(nc3ccccc13)CCCC2` the Ratio [1] was 217, the Ki [4] was 50 nM and the Ki [5] was 0.23 nM.

`c1ccc2c(NCCCCCCCCCSc3c4c(nc5ccccc35)CCCC4)c3c(nc2c1)CCCC3` showed a Ratio [1] of 86, a Ki [4] of 195 nM and a Ki [5] of 2.3 nM.

Molecule `c1ccc2c(NCCCCCNc3c4c(nc5ccccc35)CCCC4)c3c(nc2c1)CCCC3` has a Ratio [1] of 2.1, a Ki [4] of 210 nM and a Ki [5] of 100 nM.

Molecule `C=CCN(CCCNc1c2c(nc3ccccc13)CCCC2)CCCNc1c2ccccc2nc2ccccc12` has a Ratio [1] of 2.1, a Ki [4] of 1.6 nM and a Ki [5] of 0.76 nM.

Molecule `CC(=O)N(CCCNc1c2c(nc3ccccc13)CCCC2)CCCNc1c2ccccc2nc2ccccc12` has a Ratio [1] of 750, a Ki [4] of 1500 nM and a Ki [5] of 2 nM. The IC50 [3] was 3.9 nM.
